In PMC12195740, “Discovery of Novel Imidazothiazole-Based Hydroxamic Acid Derivatives as Potent Indoleamine 2,3-Dioxygenase 1 and Histone Deacetylase 6 Dual Inhibitors” (Molecules, 2025):

Assays:
[1] = test system: HCT-116 cells; assay: Cell viability (MTT) assay, HCT-116; details: Homo sapiens, HCT-116, 48 h, read-out: Antiproliferative IC50, HCT-116
Description: Section S 1.3 Cell viability assays
(§1) Cell Bank at the Chinese Academy of Sciences.
(§2) DMEM and FBS were obtained from Gibco-Thermo (BRL Co. Ltd., USA).
(§3) another 48 h. The cells were stained with 10 μl of MTT at incubator for approximately 4 h. The medium was discarded and replaced by 100 mL DMSO. The O.D. value was read at 570/630 nm with a spectrophotometer.

[2] = test system: MDA-MB-231 cells; assay: Cell viability (MTT) assay, MDA-MB-231; details: Homo sapiens, MDA-MB-231, 48 h, read-out: Antiproliferative IC50, MDA-MB-231
Description: Section S 1.3 Cell viability assays
as §1, §2, §3

[3] = molecular target: T1, HDAC6 human recombinant enzyme (Homo sapiens, UniProt Q9UBN7); assay: HDAC6 enzyme inhibitory activity assay; format: biochemical
T1 sequence (Q9UBN7 1-1215): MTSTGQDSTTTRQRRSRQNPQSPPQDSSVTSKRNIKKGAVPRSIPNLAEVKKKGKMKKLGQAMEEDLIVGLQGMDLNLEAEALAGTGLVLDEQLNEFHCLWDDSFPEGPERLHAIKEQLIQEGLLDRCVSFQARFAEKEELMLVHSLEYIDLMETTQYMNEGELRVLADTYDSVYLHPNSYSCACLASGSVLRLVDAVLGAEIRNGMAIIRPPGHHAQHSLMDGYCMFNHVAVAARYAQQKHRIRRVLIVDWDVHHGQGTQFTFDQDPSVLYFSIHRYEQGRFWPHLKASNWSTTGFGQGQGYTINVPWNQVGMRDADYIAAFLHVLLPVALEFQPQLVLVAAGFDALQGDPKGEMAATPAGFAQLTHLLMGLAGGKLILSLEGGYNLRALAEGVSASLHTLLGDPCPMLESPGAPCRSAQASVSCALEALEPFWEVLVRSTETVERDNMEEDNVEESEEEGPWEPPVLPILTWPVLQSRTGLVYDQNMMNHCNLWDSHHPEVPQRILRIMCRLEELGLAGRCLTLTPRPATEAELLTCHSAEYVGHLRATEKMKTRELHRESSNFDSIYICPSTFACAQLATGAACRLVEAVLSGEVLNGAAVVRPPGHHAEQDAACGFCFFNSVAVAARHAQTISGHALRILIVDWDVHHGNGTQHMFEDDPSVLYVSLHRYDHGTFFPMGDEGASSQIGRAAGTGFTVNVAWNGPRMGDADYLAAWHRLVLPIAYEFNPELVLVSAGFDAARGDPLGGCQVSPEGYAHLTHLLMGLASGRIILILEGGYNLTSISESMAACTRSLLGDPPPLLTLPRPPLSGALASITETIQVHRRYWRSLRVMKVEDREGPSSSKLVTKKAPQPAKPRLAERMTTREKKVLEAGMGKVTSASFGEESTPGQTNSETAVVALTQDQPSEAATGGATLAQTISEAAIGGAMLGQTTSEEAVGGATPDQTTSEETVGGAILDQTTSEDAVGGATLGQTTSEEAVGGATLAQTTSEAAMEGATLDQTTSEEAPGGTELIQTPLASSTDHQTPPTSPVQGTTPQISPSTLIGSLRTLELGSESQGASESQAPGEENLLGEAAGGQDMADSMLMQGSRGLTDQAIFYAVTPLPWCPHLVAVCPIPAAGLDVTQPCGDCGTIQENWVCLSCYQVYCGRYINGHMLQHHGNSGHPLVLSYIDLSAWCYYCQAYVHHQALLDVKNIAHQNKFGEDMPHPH
Description: Section S1. Biological assays
Section S 1.1. HDAC6 enzyme inhibitory activity assay
Preparation of Master Mix. Trichostatin A in DMSO, Fluorogenic HDAC substrate 3, and HDAC6 human recombinant enzyme were diluted to 20 μM, 200 μM, and 7 ng/uL, respectively, using HDAC Assay Buffer.BSA was dissolved in 1 mL of distilled water to make a BSA solution at a concentration of 1 mg/mL. A certain amount of Fluorogenic HDAC substrate 3, BSA and HDAC Assay Buffer were mixed well to make a master mix, and 40 μL of the master mix was added to each well of a 96-well plate. In the drug administration group, 5 μL of Trichostatin A in DMSO and HDAC6 human recombinant enzyme were added to each well. 5 μL of HDAC Assay Buffer and HDAC6 human recombinant enzyme were added to each well of the blank group, and incubated for 30 min at 37 °C. Finally, 50 μL of undiluted HDAC substrate 3, BSA and HDAC Assay Buffer were added to each well. 50 μL of 2x HDAC Developer was added to each well and incubated at room temperature for 15 min. The samples were read in an enzyme marker with an excitation wavelength in the range of 350-380 nm and an emission light in the range of 440-460 nm.
The values of fluorescence intensities were read and the inhibition rate and IC50 were calculated. […]

[4] = test system: MCF-7 cells; assay: Cell viability (MTT) assay, MCF-7; details: Homo sapiens, MCF7, 48 h, read-out: Antiproliferative IC50, MCF-7
Description: Section S 1.3 Cell viability assays
as §1, §2, §3

[5] = molecular target: T2, HDAC11 (Homo sapiens, UniProt Q96DB2); assay: HDAC isoform selectivity assay, HDAC11; format: biochemical; details: read-out: HDAC11 % inhibition rate at 10 μM
T2 sequence (Q96DB2 1-347): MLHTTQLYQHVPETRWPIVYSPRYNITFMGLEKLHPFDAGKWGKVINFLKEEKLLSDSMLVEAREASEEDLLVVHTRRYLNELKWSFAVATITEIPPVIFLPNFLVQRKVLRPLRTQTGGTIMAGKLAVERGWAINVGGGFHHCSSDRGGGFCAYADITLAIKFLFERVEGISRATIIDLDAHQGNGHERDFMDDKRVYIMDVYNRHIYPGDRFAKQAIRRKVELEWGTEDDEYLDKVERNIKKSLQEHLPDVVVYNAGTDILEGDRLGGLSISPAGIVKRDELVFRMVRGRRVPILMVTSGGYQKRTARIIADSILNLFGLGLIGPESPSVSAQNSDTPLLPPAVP

[6] = Cell viability assay, HK2 normal renal cells; details: human
Description: On the basis of the IDO1 and HDAC activities, we explored the proliferation inhibitory activities of the selected compounds against four solid tumor cells lines.

O=C(CCCCCCNc1ccc(NC(=O)c2cnc3scc(-c4ccc(Br)cc4)n23)cc1)NO [Compound 10e, 3-(4-Bromophenyl)-N-{4-[(7-(hydroxyamino)-7-oxoheptyl)amino]phenyl}imidazo[2,1-b]thiazole-5-carboxamide]
IC50 [1]: 16.4 ± 3.76 µM
IC50 [2]: 43.7 ± 1.89 µM
IC50 [3]: 0.0582 µM
Selectivity Index (SI) = HDAC1 IC50 value/HDAC6 IC50 value ([3]; HDAC1/HDAC6): 18.51
inhibition at 1 µM ([3]; read-out: HDAC6 Inhibition Rate at 1 μM): 90.5%
IC50 [4]: 36.5 ± 5.45 µM
inhibition at 10 µM [5]: 24.4%
IC50 [6]: > 80 µM
